Drawing on US11230526B1, “Cylcoalkenyl derivatives useful as agonists of the GPR120 and/or GPR40 receptors” (Janssen Pharmaceutica NV, priority 2018, dated 2022), this text covers EC50 for 24 molecules.

In one test the target is T1, human GPR40 (Homo sapiens, UniProt O14842).
T1 construct: expressed in transfected cells
Put plainly: GPR40 calcium flux assay, human GPR40. It counts as cell-based. To be noted: HEK293 cells stably expressing GPR40; table does not say human or rat. In short, it runs like this:
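Cells preincubated 1 h at 37° C. in HBSS, 20 mM HEPES, 0.1% BSA, then Fluo 8 calcium dye 30 min at 37° C. and 15 min at room temperature.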

Another test addresses T2, Human GPR120 short form (Homo sapiens, UniProt Q5NUL3).
T2 construct: expressed in transfected cells
T2 sequence (Q5NUL3 1-361): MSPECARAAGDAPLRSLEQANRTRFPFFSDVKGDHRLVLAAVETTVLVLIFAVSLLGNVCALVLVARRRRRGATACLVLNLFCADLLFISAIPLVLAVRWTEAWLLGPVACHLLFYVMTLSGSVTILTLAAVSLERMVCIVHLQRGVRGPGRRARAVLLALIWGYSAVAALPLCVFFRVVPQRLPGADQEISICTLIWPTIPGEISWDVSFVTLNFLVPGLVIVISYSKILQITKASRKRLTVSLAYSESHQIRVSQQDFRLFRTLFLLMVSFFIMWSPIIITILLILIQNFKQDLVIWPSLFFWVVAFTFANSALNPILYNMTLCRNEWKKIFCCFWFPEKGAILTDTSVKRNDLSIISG
Put plainly: Human GPR120 calcium flux assay, Procedure Calcium A (2500 cells/well). The test is classed as cell-based. In short, it runs like this:
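HEK293 cells stably expressing human GPR120 short isoform (NM_001195755.1), 2500 cells/well, serum-starved 1 h at 37 °C and loaded with Fluo-4 NW plus probenecid. FLIPR fluorescence read for 300 s after compound addition; response = Fmax−Fmin. EC50 from four-parameter concentration–response fit.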

T1 sequence (O14842 whole entry): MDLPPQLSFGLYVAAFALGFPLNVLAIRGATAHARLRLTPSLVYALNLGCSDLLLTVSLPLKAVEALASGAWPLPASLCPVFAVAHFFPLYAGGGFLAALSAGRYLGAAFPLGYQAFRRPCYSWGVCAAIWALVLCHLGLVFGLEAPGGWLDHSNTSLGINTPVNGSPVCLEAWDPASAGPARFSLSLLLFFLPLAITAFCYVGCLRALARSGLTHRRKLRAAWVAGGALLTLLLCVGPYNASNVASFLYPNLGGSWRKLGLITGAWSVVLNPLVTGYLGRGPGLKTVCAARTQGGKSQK

Take `O=C(O)CCc1ccc(OCC2=C(c3ccc(Cl)cc3)CCC2)cc1F` [Compound 47, 3-[4-[[2-(4-chlorophenyl)cyclopenten-1-yl]methoxy]-2-fluoro-phenyl]Propanoic Acid]: the values for the EC50 on human GPR40 and on Human GPR120 short form were 932 nM and 582 nM, respectively. Regarding `COc1cccc(C2=C(COc3ccc(CCC(=O)O)c(C)c3C)CCC2)c1` [Compound 141, 3-[4-[[2-(3-methoxyphenyl)cyclopenten-1-yl]methoxy]-2,3-dimethyl-phenyl]Propanoic Acid], the EC50 at human GPR40 was above 5000 nM; at Human GPR120 short form, 1060 nM. The matching figures for `Cc1c(CCC(=O)O)ccc(OCC2=C(c3ccc(Cl)cc3Cl)CCC2)c1C` [Compound 133, 3-[4-[[2-(2,4-dichlorophenyl)cyclopenten-1-yl]methoxy]-2,3-dimethyl-phenyl]Propanoic Acid]: above 5000 nM and 682 nM. Taken in the same sequence, the figures for `Cc1c(CCC(=O)O)ccc(OCC2=C(c3cccnc3)CCC2)c1C` [Compound 108, 3-[2,3-dimethyl-4-[[2-(3-pyridyl)cyclopenten-1-yl]methoxy]phenyl]Propanoic Acid] were above 5000 nM and 1050 nM. As for `Cc1c(CCC(=O)O)ccc(OCC2=C(c3cccs3)CCC2)c1C` [Compound 77, 3-[2,3-dimethyl-4-[[2-(2-thienyl)cyclopenten-1-yl]methoxy]phenyl]Propanoic Acid], the figures for the EC50 at human GPR40 and at Human GPR120 short form were above 10000 nM and 508 nM, respectively. As to `Cc1cc(CCC(=O)O)ccc1OCC1=C(c2ccc(Cl)cc2)CCC1` [Compound 62, 3-[4-[[2-(4-chlorophenyl)cyclopenten-1-yl]methoxy]-3-methyl-phenyl]Propanoic Acid], the EC50 at human GPR40 was above 5000 nM; on Human GPR120 short form, 136 nM.

On to `Cc1c(CCC(=O)O)ccc(OCC2=C(c3ccc(Cl)c(Cl)c3)CCC2)c1C` [Compound 66, 3-[4-[[2-(3,4-dichlorophenyl)cyclopenten-1-yl]methoxy]-2,3-dimethyl-phenyl]Propanoic Acid], for which the EC50 at human GPR40 was above 5000 nM; on Human GPR120 short form it was 658 nM. As for `Cc1ccc(C2=C(COc3ccc(CCC(=O)O)c(C)c3C)CCC2)cn1` [Compound 85, 3-(2,3-dimethyl-4-((2-(6-methylpyridin-3-yl)cyclopent-1-en-1-yl)methoxy)phenyl)Propanoic Acid], the EC50 on human GPR40 is above 5000 nM; at Human GPR120 short form, 605 nM. The matching figures for `Cc1c(CCC(=O)O)ccc(OCC2=C(c3nccs3)CCC2)c1C` [Compound 79, 3-[2,3-dimethyl-4-[(2-thiazol-2-ylcyclopenten-1-yl)methoxy]phenyl]Propanoic Acid]: above 5000 nM and 760 nM. As to `CCc1ccc(C2=C(COc3ccc(CCC(=O)O)c(C)c3C)CCC2)cc1` [Compound 27, 3-(4-((2-(4-ethylphenyl)cyclopent-1-en-1-yl)methoxy)-2,3-dimethylphenyl)Propanoic Acid], the EC50 at human GPR40 is above 5000 nM; at Human GPR120 short form, 256 nM. For `Cc1c(CCC(=O)O)ccc(OCC2=C(c3ccccc3Cl)CCC2)c1C` [Compound 76, 3-[4-[[2-(2-chlorophenyl)cyclopenten-1-yl]methoxy]-2,3-dimethyl-phenyl]Propanoic Acid], the results for the EC50 at human GPR40 and at Human GPR120 short form were above 10000 nM and 542 nM, respectively. Taken in the same sequence, the figures for `Cc1ccc(C2=C(COc3ccc(CCC(=O)O)cc3C)CCC2)cn1` [Compound 102, 3-(3-methyl-4-((2-(6-methylpyridin-3-yl)cyclopent-1-en-1-yl)methoxy)phenyl)Propanoic Acid] were above 5000 nM and 781 nM. Taken in the same sequence, the figures for `O=C(O)CCc1cc(F)c(OCC2=C(c3ccc(Cl)cc3)CCCC2)c(F)c1` [Compound 510, 3-[4-[[2-(4-chlorophenyl)cyclohexen-1-yl]methoxy]-3,5-difluoro-phenyl]Propanoic Acid] were above 10000 nM and 561 nM. The matching figures for `Cc1ccc(C2=C(COc3c(F)cc(CCC(=O)O)cc3F)CCC2)cc1C` [Compound 84, 3-(4-((2-(3,4-dimethylphenyl)cyclopent-1-en-1-yl)methoxy)-3,5-difluorophenyl)Propanoic Acid]: above 5000 nM and 1740 nM.

In the case of `Cc1ccccc1C1=C(COc2ccc(CCC(=O)O)c(C)c2C)CCC1` [Compound 132, 3-[2,3-dimethyl-4-[[2-(o-tolyl)cyclopenten-1-yl]methoxy]phenyl]Propanoic Acid], the EC50 at human GPR40 is above 5000 nM; at Human GPR120 short form, 1090 nM. Taken in the same sequence, the figures for `COc1cc(F)cc(C2=C(COc3ccc(CCC(=O)O)c(C)c3C)CCC2)c1` [Compound 65, 3-[4-[[2-(3-fluoro-5-methoxy-phenyl)cyclopenten-1-yl]methoxy]-2,3-dimethyl-phenyl]Propanoic Acid] were above 5000 nM and 2490 nM. The matching figures for `Cc1ccc(C2=C(COc3ccc(CCC(=O)O)c(F)c3F)CCCC2)cc1F` [Compound 494, 3-[2,3-difluoro-4-[[2-(3-fluoro-4-methyl-phenyl)cyclohexen-1-yl]methoxy]phenyl]Propanoic Acid]: above 5000 nM and 117 nM. The matching figures for `Cc1cc(CCC(=O)O)ccc1OCC1=C(c2ccc(Cl)c(F)c2)CCC1` [Compound 159, 3-(4-((2-(4-chloro-3-fluorophenyl)cyclopent-1-en-1-yl)methoxy)-3-methylphenyl)Propanoic Acid]: above 5000 nM and 44 nM. As to `Cc1ccc(C2=C(COc3ccc(CCC(=O)O)c(F)c3F)CCC2)cc1C` [Compound 83, 3-(4-((2-(3,4-dimethylphenyl)cyclopent-1-en-1-yl)methoxy)-2,3-difluorophenyl)Propanoic Acid], the EC50 was above 5000 nM on human GPR40 and 590 nM on Human GPR120 short form. Consider `Cc1c(CCC(=O)O)ccc(OCC2=C(c3cccc(Cl)c3)CCCC2)c1C` [Compound 509, 3-[4-[[2-(3-chlorophenyl)cyclohexen-1-yl]methoxy]-2,3-dimethyl-phenyl]Propanoic Acid], for which the figures for the EC50 at human GPR40 and at Human GPR120 short form were above 10000 nM and 963 nM, respectively. On to `Cc1ccc(C2=C(COc3c(F)cc(CCC(=O)O)cc3F)CCCC2)cc1F` [Compound 493, 3-[3,5-difluoro-4-[[2-(3-fluoro-4-methyl-phenyl)cyclohexen-1-yl]methoxy]phenyl]Propanoic Acid], for which the EC50 was above 5000 nM at human GPR40 and 123 nM on Human GPR120 short form. Regarding `Cc1c(CCC(=O)O)ccc(OCC2=C(c3ccc(Cl)nc3)CCC2)c1C` [Compound 158, 3-(4-((2-(6-chloropyridin-3-yl)cyclopent-1-en-1-yl)methoxy)-2,3-dimethylphenyl)Propanoic Acid], the EC50 on human GPR40 is above 5000 nM; at Human GPR120 short form, 234 nM. The matching figures for `Cc1ccc(C2=C(COc3ccc(CCC(=O)O)c(C)c3C)CCCC2)cc1F` [Compound 496, 3-[4-[[2-(3-fluoro-4-methyl-phenyl)cyclohexen-1-yl]methoxy]-2,3-dimethyl-phenyl]Propanoic Acid]: above 5000 nM and 297 nM. On to `Cc1c(CCC(=O)O)ccc(OCC2=C(c3ccc(Cl)cc3)CC(F)(F)C2)c1C` [Compound 137, 3-[4-[[2-(4-chlorophenyl)-4,4-difluoro-cyclopenten-1-yl]methoxy]-2,3-dimethyl-phenyl]Propanoic Acid], for which the EC50 on human GPR40 was above 5000 nM.
